The record followed here is patent US20240067693A1, “POLYPEPTIDES AND USES THEREOF” (MEDIMMUNE LIMITED, priority 2020, published 2024).

Numbered stars: 1 amine (or outer) side, 2 acyl side, 3 side chain; on linkers, the order of the positions; unused ones are H or OH. Bridge positions count the residues as written; N and C are the ends. Square brackets hold non-standard residues; d marks the D form. Side chains are listed from the residue outwards. Peptide text beside a SMILES is read from it. * marks the point of attachment. C18 diacid = O=C(O)CCCCCCCCCCCCCCCCC(=O)*; γGlu = O=C(O)[C@H](CCC(=O)[*:2])N[*:1]; Aib = CC(C)(N)C(=O)O

The target in series [1] is T1, rat amylin receptor (calcitonin receptor co-expressed with receptor activity modifying protein, RAMP3) (Rat AMYR3) (Rattus norvegicus, UniProt P32214+Q9JJ73).
T1 construct: expressed in transfected cells
T1 sequence (P32214 25-516): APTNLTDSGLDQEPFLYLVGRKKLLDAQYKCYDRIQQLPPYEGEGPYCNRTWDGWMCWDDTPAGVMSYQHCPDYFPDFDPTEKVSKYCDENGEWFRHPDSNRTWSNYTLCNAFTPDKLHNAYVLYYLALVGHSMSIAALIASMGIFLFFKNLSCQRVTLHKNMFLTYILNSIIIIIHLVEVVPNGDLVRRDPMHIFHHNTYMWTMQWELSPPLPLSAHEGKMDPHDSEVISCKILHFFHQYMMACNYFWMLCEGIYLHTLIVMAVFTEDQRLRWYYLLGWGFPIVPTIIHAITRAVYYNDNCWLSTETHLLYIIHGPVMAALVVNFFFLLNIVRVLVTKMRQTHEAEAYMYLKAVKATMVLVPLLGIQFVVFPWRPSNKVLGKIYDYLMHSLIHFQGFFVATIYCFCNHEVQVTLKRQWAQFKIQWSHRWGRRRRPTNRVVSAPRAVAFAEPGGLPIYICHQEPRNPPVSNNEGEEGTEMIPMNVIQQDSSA
T1 sequence (Q9JJ73 23-147 partner): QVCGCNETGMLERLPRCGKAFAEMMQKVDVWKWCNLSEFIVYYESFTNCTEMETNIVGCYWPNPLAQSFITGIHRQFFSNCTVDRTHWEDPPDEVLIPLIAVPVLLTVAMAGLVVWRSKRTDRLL
Nature of the series: cAMP production in HEK cells with stable recombinant expression of rat amylin receptor (Rat AMYR3). It counts as cell-based. To be noted: assay buffer with 0.1% BSA. As to the method:
(§1) The functional activities of lipidated pramlintide analogue peptides, such as cAMP production, were tested in 1321N1 cell line with stable recombinant expression of human calcitonin receptor (hCTR) or human amylin receptor (calcitonin receptor co-expressed with receptor activity modifying protein, RAMP3) (hAMYR3) or HEK cells with stable recombinant expression of rat calcitonin receptor (rat CTR) or rat amylin receptor (calcitonin receptor co-expressed with receptor activity modifying protein, RAMP3) (Rat AMYR3).
(§2) Cryopreserved cell stock was thawed rapidly in a water-bath, suspended in assay buffer (0.1% BSA (Sigma # A3059) in HBSS (Sigma # H8264) with 25 mM HEPES, pH 7.4 and containing 0.5 mM IB MX (Sigma# 17018)) and spun at 240×g for 5 minutes. Cells were re-suspended in assay buffer at a batch-dependent optimized concentration (e.g. hCTR cells at 0.125×10^5 cells/mL, hAMYR3 cells at 0.125×10^5 cells/mL, rat CTR cells at 1x10^5 cells/mL, rat AMYR3 at 2×10^5 cells/mL).
(§3) The test peptide stock was prepared in DMSO and diluted in assay buffer to reach stated concentrations and transferred in duplicates into a 384-black shallow well microtitre assay plate (Corning # 3676). Cells were added to the assay plate, incubated at room temperature for 30 minutes and the cAMP level measured using cAMP dynamic 2 HTRF kit (Cisbio, Cat # 62AM4PEJ), following the two step protocol as per manufacturer's recommendations. The plates were read on an Envision (Perkin Elmer) using excitation wavelength of 320 nm and emission wavelengths of 620nm & 665 nm.
(§4) Data was transformed to % Delta F as described in the manufacturer's guidelines and analyzed as percent activation of maximal amylin or calcitonin effect by 4-parameter logistic fit to determine EC50 values. The selectivity of a peptide to hAMYR vs hCTR is defined as a ratio of EC50 values at the two receptors.

For another series, the system named is lean rats. Kind of series: Rat acute food intake study. It counts as in vivo. To be noted: lean male Sprague Dawley rats, 20 nmol/kg subcutaneously. As to the method: Male Sprague Dawley rats were obtained from Taconic Denmark, ApS at approximately 7 weeks of age. Rats were implanted with a microchip for identification, housed 4/cage with enrichment, free access to food and water, and allowed one week acclimatisation while non-invasive characterization was performed. Rats were on a 12:12 light:dark cycle that switches at 1pm:1am. Food intake was monitored via the HM2 system (Lafayette Instrument) that allows for monitoring in a home cage. As each rat enters an access tunnel to feed, an IR beam is broken, and the implanted microchip is read. Resulting changes to food weight is then assigned to the specific animal. Social order has shown no impact to overall feeding patterns and amounts.
Rats were sorted into groups based on Day -1 body weight and 24-hour accumulated food intake (n=7 per group). On Day 0 rats were weighed, then fasted for 6 hours. Thirty (30) minutes prior to the reintroduction of food, rats were dosed subcutaneously (5 mL/kg) with 20 nmol/kg of test compound or 60 nmol/kg peptide 1 (pramlintide) diluted in an appropriate vehicle, after which food was returned, and lights went out. Automated food intake was monitored for the following 3 days, and rats were weighed once per day.
Food intake per rat was batched into 1-hour intervals and integrated into Gubra's GubraView data management system. Discrete food intake data was exported into MS Excel from which cumulative food intake data was generated. Cumulative food intake data was then transposed into GraphPad Prism (v8.0.1) for analysis of dark period feeding

Series [2] can be described thus: Pharmacokinetic determination via IV and SC administration in Sprague Dawley rats. To be noted: male, rat, plasma, 20 nmol/kg.
In series [3] the target is T2, human amylin receptor (calcitonin receptor co-expressed with receptor activity modifying protein, RAMP3) (hAMYR3) (Homo sapiens, UniProt O60896+P30988).
T2 construct: expressed in transfected cells
T2 sequence (P30988 25-474): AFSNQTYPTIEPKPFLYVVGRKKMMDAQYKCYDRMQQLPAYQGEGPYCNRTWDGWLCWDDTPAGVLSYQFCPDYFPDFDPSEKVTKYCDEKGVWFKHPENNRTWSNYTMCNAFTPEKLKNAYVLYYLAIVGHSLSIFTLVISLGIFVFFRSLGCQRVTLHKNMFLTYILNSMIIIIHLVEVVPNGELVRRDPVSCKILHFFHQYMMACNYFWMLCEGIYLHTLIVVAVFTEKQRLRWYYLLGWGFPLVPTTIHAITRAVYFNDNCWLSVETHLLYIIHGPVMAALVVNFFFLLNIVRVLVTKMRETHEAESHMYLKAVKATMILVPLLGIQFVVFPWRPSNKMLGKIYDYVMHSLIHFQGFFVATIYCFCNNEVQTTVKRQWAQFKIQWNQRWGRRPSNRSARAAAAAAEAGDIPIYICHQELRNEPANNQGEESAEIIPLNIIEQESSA
T2 sequence (O60896 24-148 partner): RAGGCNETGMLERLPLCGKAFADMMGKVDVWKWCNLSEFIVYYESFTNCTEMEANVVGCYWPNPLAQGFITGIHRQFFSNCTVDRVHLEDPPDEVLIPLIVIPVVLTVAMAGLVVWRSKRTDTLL
Kind of series: cAMP production in 1321N1 cells with stable recombinant expression of human amylin receptor (hAMYR3). It counts as cell-based. The settings on record: for Ratio (selectivity hAMYR vs hCTR, ratio of EC50 values at the two receptors): EC50 hCTR / EC50 hAMYR3; for EC50: cAMP, 1321N1 cells, assay buffer with 0.1% BSA, read-out: EC50 (pM) hAMYR3. The essentials: (§5)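 EC50 values come from 4-parameter logistic fits of HTRF cAMP signal, normalised to maximal calcitonin or amylin effect. Peptides were tested in duplicate for 30 min at RT in IBMX-containing (0.5 mM) BSA/HEPES buffer pH 7.4 on stable 1321N1 (human CTR, AMYR3) or HEK (rat CTR, AMYR3) lines.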

For series [4], the target named is T3, rat calcitonin receptor (rat CTR) (Rattus norvegicus, UniProt P32214).
T3 construct: expressed in transfected cells
T3 sequence (P32214 25-516): T1 sequence (P32214 25-516)
Nature of the series: cAMP production in HEK cells with stable recombinant expression of rat calcitonin receptor (rat CTR). It counts as cell-based. The settings on record: assay buffer with 0.1% BSA. The procedure:
as §1, §2, §3, §4
A general note: Cyclic AMP is a second messenger, typically raised through Gs and lowered through Gi signalling.

For series [5], the target named is T4, human calcitonin receptor (hCTR) (Homo sapiens, UniProt P30988).
T4 construct: expressed in transfected cells
T4 sequence (P30988 25-474): T2 sequence (P30988 25-474)
Kind of series: cAMP production in 1321N1 cells with stable recombinant expression of human calcitonin receptor (hCTR). To be noted: cAMP, 1321N1 cells, assay buffer with 0.1% BSA; read-out: EC50 (pM) hCTR. It counts as cell-based. The essentials: as §5

With `CC[C@H](C)[C@H](NC(=O)[C@@H]1CCCN1C(=O)CNC(=O)[C@H](Cc1ccccc1)NC(=O)[C@H](CC(N)=O)NC(=O)C(C)(C)NC(=O)[C@H](CO)NC(=O)[C@H](CO)NC(=O)[C@H](Cc1c[nH]cn1)NC(=O)[C@@H](NC(=O)[C@H](CC(C)C)NC(=O)[C@H](Cc1ccccc1)NC(=O)[C@H](CCC(=O)O)NC(=O)[C@H](C)NC(=O)[C@H](CC(C)C)NC(=O)[C@H](CCCNC(=N)N)NC(=O)[C@H](CCC(N)=O)NC(=O)[C@@H](NC(=O)[C@H](C)NC(=O)[C@@H]1CSSC[C@H](NC(=O)[C@H](CCCCN)NC(=O)[C@@H](N)CCCCNC(=O)CC[C@H](NC(=O)CCCCCCCCCCCCCCCCC(=O)O)C(=O)O)C(=O)N[C@@H](CC(N)=O)C(=O)N[C@@H]([C@@H](C)O)C(=O)N[C@@H](C)C(=O)N[C@@H]([C@@H](C)O)C(=O)N1)[C@@H](C)O)C(C)C)C(=O)N[C@@H](CC(C)C)C(=O)N1CCC[C@H]1C(=O)N1CCC[C@H]1C(=O)N[C@H](C(=O)N[C@@H](CC(N)=O)C(=O)N[C@H](C(=O)NCC(=O)N[C@@H](CO)C(=O)N[C@@H](CC(N)=O)C(=O)N[C@H](C(=O)N[C@@H](Cc1ccc(O)cc1)C(N)=O)[C@@H](C)O)C(C)C)[C@@H](C)O` [Peptide 38, K(γE-C18diacid)K[CNTATC]ATQRLAEFLVHSS(Aib)NFGPILPPTNVGSNTY-amide] (H-K([γGlu-C18 diacid])KCNTATCATQRLAEFLVHSS[Aib]NFGPILPPTNVGSNTY-NH2; disulfide 3-8; N-terminus assumed), the EC50 in series [1] is 5.1 pM; in series [3], 190 pM; in series [4], 20.3 pM; in series [5] it was 1050 pM. The “Cummulative food intake (% vehicle treated intake) At 12 h” value in the series with lean rats was found to be 6.9 % vehicle treated intake. For the same compound, the “Cummulative food intake (% vehicle treated intake) At 24 h” value with lean rats is 5.5 % vehicle treated intake. Moreover, in the series on lean rats, the “Cummulative food intake (% vehicle treated intake) At 48 h” value worked out at 13.7 % vehicle treated intake. For the same compound, the half-life is 6.6 h in series [2] (iv) and 9 h in series [2] (sc). The “Ratio (selectivity hAMYR vs hCTR, ratio of EC50 values at the two receptors)” value in series [3] was 6.

Consider `CC[C@H](C)[C@H](NC(=O)[C@@H]1CCCN1C(=O)CNC(=O)[C@H](Cc1ccccc1)NC(=O)[C@H](CC(N)=O)NC(=O)[C@H](CC(N)=O)NC(=O)[C@H](CO)NC(=O)[C@H](CO)NC(=O)[C@H](Cc1c[nH]cn1)NC(=O)C(C)(C)NC(=O)[C@H](CC(C)C)NC(=O)[C@H](Cc1ccccc1)NC(=O)[C@H](CC(N)=O)NC(=O)[C@H](C)NC(=O)[C@H](CC(C)C)NC(=O)[C@H](CCCNC(=N)N)NC(=O)[C@H](CCC(N)=O)NC(=O)[C@@H](NC(=O)[C@H](C)NC(=O)[C@@H]1CSSC[C@H](NC(=O)[C@H](CCCCN)NC(=O)[C@@H](N)CCCCNC(=O)CC[C@H](NC(=O)CCCCCCCCCCCCCCCCC(=O)O)C(=O)O)C(=O)N[C@@H](CC(N)=O)C(=O)N[C@@H]([C@@H](C)O)C(=O)N[C@@H](C)C(=O)N[C@@H]([C@@H](C)O)C(=O)N1)[C@@H](C)O)C(=O)N[C@@H](CC(C)C)C(=O)N1CCC[C@H]1C(=O)N1CCC[C@H]1C(=O)N[C@H](C(=O)N[C@@H](CCC(=O)O)C(=O)N[C@H](C(=O)NCC(=O)N[C@@H](CO)C(=O)N[C@@H](CC(N)=O)C(=O)N[C@H](C(=O)N[C@@H](Cc1ccc(O)cc1)C(N)=O)[C@@H](C)O)C(C)C)[C@@H](C)O` [Peptide 140] (H-K([γGlu-C18 diacid])KCNTATCATQRLANFL[Aib]HSSNNFGPILPPTEVGSNTY-NH2; disulfide 3-8; N-terminus assumed), for which the EC50 in series [1] was 19.5 pM; in series [3], 656 pM; in series [4], 1220 pM; in series [5] it was 6050 pM. Moreover, the “Cummulative food intake (% vehicle treated intake) At 12 h” value in the series on lean rats was found to be 62.4 % vehicle treated intake. Moreover, the “Cummulative food intake (% vehicle treated intake) At 24 h” value with lean rats came to 54.4 % vehicle treated intake. Moreover, in the series with lean rats, the “Cummulative food intake (% vehicle treated intake) At 48 h” value was 56.5 % vehicle treated intake. Moreover, the half-life in series [2] (iv) was 10.6 h; in series [2] (sc) it was 12.9 h. Moreover, in series [3], the “Ratio (selectivity hAMYR vs hCTR, ratio of EC50 values at the two receptors)” value is 9.2.

Usually EC50 stands for the midpoint of the concentration-response curve. The term half-life denotes the time needed for the level to fall by half in the phase considered. A high value points to slow decline.
